Data on one compound can be found in patent US20230381322A1, “METHOD FOR PREPARING A DNA NETWORK WITH CONTROLLED CRYSTAL STRUCTURE AND A METHOD FOR INJECTING DRUGS USING THE DNA NETWORK” (UIF (University Industry Foundation), Yonsei University, priority 2022, published 2023).

The test system of one assay is HeLa cells. Nature of the assay: Cytotoxicity of released Dox, MTT assay. The class given is cell-based. Conditions: HeLa cells treated 24 h with Dox-released incubation solutions of pH 5.0, 6.4, 7.4. The procedure:
Cell adhesion efficiencies were evaluated by incubating GelRed-labeled pDNets in cell media containing 2.5×10^5 Hela or NIH/3T3 cells for an hour. After the incubation, Calcein AM was used to stain the attached cells and the pDNets were washed three times with PBS. After staining, CLSM was used to visualize the respective fluorescence to determine the number of cells attached to each pDNet/mm^2. Evaluation of intracellular delivery of released Dox from pDNets was performed by loading pDNets with 20 nmol Dox. Dox-loaded pDNets were incubated in a pH 5.0, 6.4, and […] PBS solution for 32 h, which were then diluted 1, 2, and 4-fold with Dulbecco's modified Eagle's medium and used to treat 1×10^5 HeLa cells for 2 h. As a positive control, 20 nmol free Dox diluted similarly was used for treatment at final concentrations of 2, 4, and 8 μM to represent complete release of Dox. After the incubation, cell nuclei were stained with Hoechst and the intracellular delivery of Dox was compared using CLSM. […] After 24 h of treatment, cell viability was quantified using the MTT assay (Roche Diagnostics, Mannheim, Germany) following the manufacturer's protocol. […] The resulting formazan salts were dissolved by adding dimethyl sulfoxide, and the absorbance was measured at 570 nm using a multi-label microplate reader (Victor X5; Perkin Elmer).
On the technique in general: Tetrazolium assays rely on reduction of a dye to a coloured formazan, in cell work by metabolically active cells.

Assay [1] has as its system HeLa cell-implanted BALB/c nude mice xenografts. The experiment in a line: Localized anticancer therapy, intratumoral injection. It counts as in vivo. The note with it: single intratumoral injection, 2.5 mg/kg Dox, day 8. The procedure:
All animal experiments were performed in compliance with the relevant laws and institutional guidelines of the Korea Institute of Science and Technology (KIST; KIST-2020-108). To evaluate the anticancer effects of pDNets, tumor-bearing BALB/c nude mice were prepared by injecting a suspension of 5×10^6 cells per mouse. The mice were divided into five groups (n=5): (1) PBS, (2) free DOX, (3) pDNet-H, (4) pDNet-M, and (5) pDNet-L. Each mouse was injected intratumorally with 2.5 mg/kg Dox when the size of the tumors was approximately 100-150 mm ^3. The tumor volumes and body weights of each mouse were observed every 2 days for 8 days. The length (L) and width (W) of the tumors were measured, and tumor volumes (V) were calculated using the following formula: V=L×W^2×0.52. To assess the biocompatibility of the pDNets, mice in each group were sacrificed after 8 days and the major organs were excised. To assess the biosafety of pDNets, the excised organs were paraffin-embedded and cut into 5 μm sections. Hematoxylin and eosin (H&E) staining was performed to observe the histopathological changes.

Consider `COc1cccc2c1C(=O)c1c(O)c3c(c(O)c1C2=O)C[C@@](O)(C(=O)CO)C[C@@H]3O[C@H]1C[C@H](N)[C@H](O)[C@H](C)O1` [free Dox, doxorubicin], for which, in the assay with HeLa cells, the “in vitro therapeutic effect (cell viability, MTT)” value is reported as “most effective in vitro”. In assay [1], the “tumor volume reduction relative to the control group” value is approximately 35% and the “tumor weight reduction relative to the control group” value is listed as approximately 35%.
